# Data reported in the supplement of paper PMC11208160.
# Experiment: recombinant UMI read abundance after kanamycin selection (control-corrected) (log10(CPM+1)); higher = more efficient recombination; extreme values may be limits of the assay; sequences stand for … in AGTGCAGAGAAAATCGGCCAGTTTTCTCTGCCTGCAGTCCGCATGCCGTGGGACCCCTTGGGTTCTAACCTGTTGCCTAGATTTATGCAGCGGACTGCCTTTCTCCCAAAGTGATAAACCGG…AGGTTGGTTTCACT; site = the 11-nt donor
# Outline: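 The measure is log10(CPM+1) for recombinant UMIs. These were PCR-amplified across the donor–target junction and sequenced after Escherichia coli carrying a donor and donor-binding-loop pair library and a target plasmid with T7-inducible IS621 bridge recombinase was plated on IPTG (0.07 mM) plus kanamycin or unselected. CPM were averaged over two replicates and scaled by control-derived factors.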
# 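Further: IS621 bridge recombinase in Escherichia coli cells against a fixed T5 target plasmid.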
row,Sequence,recombinant UMI read abundance (log10)
1,ATCAGAGCATGGACCGGTTTTCCCGGTAATCCGTATTTGTC (site ATCAGAGCTGA),1.82
2,ACTAGAACATGGACCGGTTTTCCCGGTAATCCGTATTTGAC (site ACTAGAACTGT),2.13
3,CAAGGGGCATGGACCGGTTTTCCCGGTAATCCGTATTTGTT (site CAAGGGGCTAA),2.43
4,ACCCGAACATGGACCGGTTTTCCCGGTAATCCGTATTTGTC (site ACTCGAACTGA),0
5,TACTGACCATGGACCGGTTTTCCCGGTAATCCGTATTTGGA (site TACTGACCTTC),0.0192
6,GCGAAGACATGGACCGGTTTTCCCGGTAATCCGTATTTGGG (site GCGAAGGCTCC),0.287
7,GATCCAACATGGACCGGTTTTCCCGGTAATCCGTATTTGTA (site GATCCAACTTA),0.0155
8,CGGAATCCATGGACCGGTTTTCCCGGTAATCCGTATTTGTT (site CGGACTGCTAA),0.0124
9,CCTAATACATGGACCGGTTTTCCCGGTAATCCGTATTTGTC (site CCTAATACTGT),0
10,ACCCATACATGGACCGGTTTTCCCGGTAATCCGTATTTGAA (site ACCCATACTTT),1.34
11,GTATGCACATGGACCGGTTTTCCCGGTAATCCGTATTTGTG (site GTATGCACTGA),0.881
12,ATTGAGACATGGACCGGTTTTCCCGGTAATCCGTATTTGTT (site ATTGAGACTAT),0.811
13,CGTTAGACATGGACCGGTTTTCCCGGTAATCCGTATTTGGG (site CGTTAGACTCG),0.0116
14,AAAGTAACATGGACCGGTTTTCCCGGTAATCCGTATTTGCT (site AATGTAACTAG),2.1
15,AATGTGTCATGGACCGGTTTTCCCGGTAATCCGTATTTGAG (site AATGTGTCTGT),0.801
16,AGAAGGCCATGGACCGGTTTTCCCGGTAATCCGTATTTGAC (site ATAAGGCCTGT),0
17,GAATGGCCATGGACCGGTTTTCCCGGTAATCCGTATTTGCA (site GAATAGCCTTG),0.926
18,GGAGTAGCATGGACCGGTTTTCCCGGTAATCCGTATTTGTC (site GGAGTAGCTGA),1.98
19,CTTCTCTCATGGACCGGTTTTCCCGGTAATCCGTATTTGTT (site CTTCTCTCTCA),0.0142
20,AGATTCGCATGGACCGGTTTTCCCGGTAATCCGTATTTGGA (site AGATTCGCTTC),1.89
21,CCGTTAGCATGGACCGGTTTTCCCGGTAATCCGTATTTGCG (site CCGTTAGCTCA),0
22,CGGGCTGCATGGACCGGTTTTCCCGGTAATCCGTATTTGAG (site CGGGCTGCTCT),1.37
23,ACACCAACATGGACCGGTTTTCCCGGTAATCCGTATTTGTC (site ACACCAACTGA),1.62
24,TTGCTGACATGGACCGGTTTTCCCGGTAATCCGTATTTGCG (site TTGCTGACTCG),1.33
25,AATTTGTCATGGACCGGTTTTCCCGGTAATCCGTATTTGAC (site AATTTGTCTGT),0

row,Sequence,recombinant UMI read abundance (log10)
1,TAAAGTCCATGGACCGGTTTTCCCGGTAATCCGTATTTGTA (site TAGAGTCCTTA),0.358
2,TTGTACCCATGGACCGGTTTTCCCGGTAATCCGTATTTGGT (site TTGTACCCTAC),0.111
3,TAGAATACATGGACCGGTTTTCCCGGTAATCCGTATTTGCA (site TAGAACACTTG),0
4,CGGAATCCATGGACCGGTTTTCCCGGTAATCCGTATTTGTT (site CGGAAGCCTAA),0.0104
5,CTGAAAACATGGACCGGTTTTCCCGGTAATCCGTATTTGCA (site CTGGAAACTTG),0
6,GATTATCCATGGACCGGTTTTCCCGGTAATCCGTATTTGAT (site GATTATCCTAT),0
7,CGATCATCATGGACCGGTTTTCCCGGTAATCCGTATTTGCT (site CGGTCAGCTAG),0.0144
8,AATGCGTCATGGACCGGTTTTCCCGGTAATCCGTATTTGAC (site AATGTGTCTGT),0.269
9,TTGCTGACATGGACCGGTTTTCCCGGTAATCCGTATTTGTG (site TTGCTGACTCA),0.12
10,GGTCCAACATGGACCGGTTTTCCCGGTAATCCGTATTTGTA (site GGTCCAACTTA),0.431
11,ATATCACCATGGACCGGTTTTCCCGGTAATCCGTATTTGCT (site ATATCACCTAG),0
12,TTTGCAGCATGGACCGGTTTTCCCGGTAATCCGTATTTGCT (site TTTGCGGCTAG),0.00881
13,TCCAATTCATGGACCGGTTTTCCCGGTAATCCGTATTTGCA (site TCCAATTCTTG),0
14,CGCTCCTCATGGACCGGTTTTCCCGGTAATCCGTATTTGCC (site CCCTCCTCTGG),1.72
15,AAGTCCGCATGGACCGGTTTTCCCGGTAATCCGTATTTGAT (site AAGTCCGCTAT),1.53
16,GTTACGTCATGGACCGGTTTTCCCGGTAATCCGTATTTGTT (site GATACGTCTAA),0.0159
17,ACTAGTGCATGGACCGGTTTTCCCGGTAATCCGTATTTGGG (site ACTAGTGCTCC),0.376
18,ACATCTACATGGACCGGTTTTCCCGGTAATCCGTATTTGTG (site ACAGCTACTCA),0.0992
19,CCGGAGTCATGGACCGGTTTTCCCGGTAATCCGTATTTGCC (site CGGGAGTCTGG),0
20,AAGCAGACATGGACCGGTTTTCCCGGTAATCCGTATTTGGA (site AAGCAGACTTC),1.25
21,CAATCGACATGGACCGGTTTTCCCGGTAATCCGTATTTGGG (site CAGTCGACTCC),0
22,GTAGTCGCATGGACCGGTTTTCCCGGTAATCCGTATTTGCA (site GTAGTCGCTAG),0.762
23,GGGCGAACATGGACCGGTTTTCCCGGTAATCCGTATTTGGA (site GGGCGAACTTC),0.799
24,ACCTCCGCATGGACCGGTTTTCCCGGTAATCCGTATTTGAG (site ACCTCCGCTCT),0.147
25,TACGATGCATGGACCGGTTTTCCCGGTAATCCGTATTTGCT (site TACGATGCTAG),1.98

row,Sequence,recombinant UMI read abundance (log10)
1,GGCAGAGCATGGACCGGTTTTCCCGGTAATCCGTATTTGAG (site GGCAGAGCTCT),1.67
2,GGAGTGGCATGGACCGGTTTTCCCGGTAATCCGTATTTGTT (site GGAGTGGCTAC),0.00283
3,GATTTTCCATGGACCGGTTTTCCCGGTAATCCGTATTTGCT (site GATTATCCTAG),0
4,GACAAACCATGGACCGGTTTTCCCGGTAATCCGTATTTGGT (site GACAATCCTAC),0
5,CACAGATCATGGACCGGTTTTCCCGGTAATCCGTATTTGAT (site CACAGATCTAT),2.37
6,TTAGCTGCATGGACCGGTTTTCCCGGTAATCCGTATTTGTT (site TTAGCTGCTGA),0.423
7,GTTAGAACATGGACCGGTTTTCCCGGTAATCCGTATTTGGC (site GGTAGAACTGC),0
8,TAGATTACATGGACCGGTTTTCCCGGTAATCCGTATTTGCA (site TAGAGTACTTG),0.616
9,CGTTTGGCATGGACCGGTTTTCCCGGTAATCCGTATTTGCT (site CGTGTGGCTAG),0.00452
10,GCTAAAGCATGGACCGGTTTTCCCGGTAATCCGTATTTGAT (site TCTAAAGCTAT),0.378
11,TTCGCCTCATGGACCGGTTTTCCCGGTAATCCGTATTTGAT (site TTCGCCTCTAT),0.521
12,CGGAATCCATGGACCGGTTTTCCCGGTAATCCGTATTTGTT (site CGGAATCCTAT),0
13,CGATCATCATGGACCGGTTTTCCCGGTAATCCGTATTTGTA (site CGATCATCTAG),0
14,CAATGCTCATGGACCGGTTTTCCCGGTAATCCGTATTTGAA (site CAATTCTCTTT),0
15,TCGCTAGCATGGACCGGTTTTCCCGGTAATCCGTATTTGCT (site TCGCTAGCTAG),0
16,TGCTTGACATGGACCGGTTTTCCCGGTAATCCGTATTTGCT (site TACTTGACTAG),1.51
17,CGGAATCCATGGACCGGTTTTCCCGGTAATCCGTATTTGTT (site CGGAGTCCTAT),0
18,CGGAATCCATGGACCGGTTTTCCCGGTAATCCGTATTTGTT (site CTGAATGCTAA),0.00589
19,AATCATGCATGGACCGGTTTTCCCGGTAATCCGTATTTGGA (site AATGATGCTTC),0.351
20,CGGAATCCATGGACCGGTTTTCCCGGTAATCCGTATTTGTT (site CGGAAACCTTA),0
21,GGATAGACATGGACCGGTTTTCCCGGTAATCCGTATTTGCG (site GGATAGACTCG),2.55
22,CGCAATCCATGGACCGGTTTTCCCGGTAATCCGTATTTGGT (site CGCAATCCTAC),0.135
23,TAGAATACATGGACCGGTTTTCCCGGTAATCCGTATTTGCA (site TAGGATACTTG),1.71
24,AACTCCTCATGGACCGGTTTTCCCGGTAATCCGTATTTGCC (site GACTCCTCTGG),1.42
25,CCGTAGTCATGGACCGGTTTTCCCGGTAATCCGTATTTGGG (site CCGTAGTCTCC),0.0263
